Results as given in patent US10751318B2, “Pharmaceutical co-crystal and use thereof” (SYN-NAT PRODUCTS ENTERPRISE LLC, priority 2015, dated 2020).
pIC50: −log10 of the molar value. Values joined by “and” are separate entries in the source; they are usually repeats but may differ in a detail not shown here. Identical values can stand only once. Like-named read-outs stand apart in the source and are kept apart here.

Experiments:
[1] = system: A498 kidney cancer cell line; test: MTS cell viability assay, A498 kidney cancer cells; assay type: cell-based
[2] = system: ACHN kidney cancer cell line; test: MTS cell viability assay, ACHN kidney cancer cells; assay type: cell-based; conditions: read-out: IC50 to reduce ACHN cell number
[3] = system: human embryonic kidney cell line HEK293; test: MTS cell viability assay, HEK293 (kidney cancer study; controls carboplatin, 5-FU)
[4] = system: fetal hepatocytes HL-7002; test: MTS cell viability assay, HL-7002 (kidney cancer study; controls carboplatin, 5-FU); conditions: for pIC50: read-out: IC50 in HL-7002 cells
[5] = Water solubility
[6] = system: PC-3 prostate cancer cell line; test: MTS cell viability assay, PC-3 prostate cancer cells; assay type: cell-based, human; conditions: PC-3 cells, 0.01 to 300 μM, read-out: IC50 to reduce PC-3 cell number
[7] = system: LNCaP prostate cancer cell line; test: MTS cell viability assay, LNCaP prostate cancer cells; assay type: cell-based, human; conditions: 0.01 to 300 μM, read-out: IC50 to reduce LNCaP cell number
[8] = system: human embryonic kidney cell line HEK293; test: MTS cell viability assay, HEK293 (prostate cancer study; controls docetaxel, cisplatin); conditions: for toxicity to HEK293 cells: study with docetaxel and cisplatin (FIG. 4)
[9] = system: fetal hepatocytes HL-7002; test: MTS cell viability assay, HL-7002 (prostate cancer study; controls docetaxel, cisplatin); conditions: for pIC50: read-out: IC50 to reduce HL-7002 cell number
[10] = system: HBsAg secreted by HepG2.2.15 cells; test: HBsAg secreted by HepG2.2.15 cells (ELISA); assay type: cell-based, hepatitis B virus; conditions: 3d
From the text: (§1) The levels of HbsAg and HbeAg in chemical-treated HepG2.2.15 cells were detected by enzyme-linked immunosorbent assay (ELISA).

[11] = system: HBeAg secreted by HepG2.2.15 cells; test: HBeAg secreted by HepG2.2.15 cells (ELISA); assay type: cell-based, hepatitis B virus; conditions: 3d
From the text: as §1

[12] = A498 cells, MTS, 0.01 to 300 uM, read-out: IC50 to reduce A498 cell number
[13] = ACHN cells, MTS, 0.01 to 300 uM
[14] = read-out: IC50 in HEK293 cells, HEK293 cells, study with carboplatin and 5-FU (FIG. 8)
[15] = HL-7002 cells, study with carboplatin and 5-FU (FIG. 7)
[16] = HL-7002 cells, study with docetaxel and cisplatin (FIG. 3)
[17] = HEK293 cells, similar conditions
[18] = HL-7002 cells, similar conditions

## O=c1[nH]cc(F)c(=O)[nH]1 [5-FU, fluorouracil, reference compound]
[1]; Homo sapiens, A498, read-out: IC50 to reduce A498 cell number
  pIC50: 4.74
[2]; Homo sapiens, ACHN
  pIC50: 5.19
[3]; Homo sapiens, HEK293, read-out: IC50 in HEK293 cells
  pIC50: 3.45
[4]; Homo sapiens, Hepatocyte
  pIC50: 4.35

## N.N.O=C([O-])C1(C(=O)[O-])CCC1.[Pt+2] [carboplatin, reference compound]
[1]; [12]
  pIC50: 4.83
[2]; [13]
  pIC50: 4.96
[5]
  water solubility: 18 mg/mL
[3]; [14]
  pIC50: 3.63
[4]; [15]
  pIC50: 4.47

## N.N.[Cl][Pt][Cl] [cisplatin, reference compound]
[6]
  pIC50: 5.60
[7]
  pIC50: 5.65
[8]; read-out: IC50 in HEK293 cells, study with docetaxel and cisplatin (FIG. 4)
  pIC50: 5.16
[9]; [16]
  pIC50: 5.70

## CC(=O)O[C@@]12CO[C@@H]1C[C@H](O)[C@@]1(C)C(=O)[C@H](O)C3=C(C)[C@@H](OC(=O)[C@H](O)[C@@H](NC(=O)OC(C)(C)C)c4ccccc4)C[C@@](O)([C@@H](OC(=O)c4ccccc4)[C@H]21)C3(C)C [docetaxel, reference compound]
[8]
  toxicity to HEK293 cells: strong toxicity
[9]; Homo sapiens, Hepatocyte
  pIC50: 7.02

## carboplatin cis-cyclobutane-1,2-dicarboxylic acid co-crystal [CBCBP]
[6]
  pIC50: ~4.75 and 4.75
[7]
  pIC50: ~4.71
[1]; [12]
  pIC50: ~4.74 and 4.74
[2]; [13]
  pIC50: 4.93 and ~4.93
[10]; 3.125 μg/mL
  inhibition rate HbsAg: 19.5%
[10]; 6.25 μg/mL
  inhibition rate HbsAg: 23.6%
[10]; 12.5 μg/mL
  inhibition rate HbsAg: 37.3%
[10]; 25 μg/mL
  inhibition rate HbsAg: 48.5%
[11]; 3.125 μg/mL
  inhibition rate HbeAg: 0.6%
[11]; 6.25 μg/mL
  inhibition rate HbeAg: 25.0%
[11]; 12.5 μg/mL
  inhibition rate HbeAg: 25.3%
[11]; 25 μg/mL
  inhibition rate HbeAg: 28.5%
[5]
  water solubility: ~30 mg/mL
[3]; [17]
  toxicity of CBCBP relative to 5-FU: about ¼
  toxicity of CBCBP relative to carboplatin: about ⅕
[3]; [14]
  pIC50: 2.92 and ~2.92
[4]; [18]
  toxicity of CBCBP relative to 5-FU: about ⅛
  toxicity of CBCBP relative to carboplatin: about 1/10
[4]; [15]
  pIC50: 3.45 and ~3.45
[8]
  toxicity to HEK293 cells: no toxicity
[9]; [18]
  toxicity of CBCBP relative to cisplatin: about 1/10
  toxicity of CBCBP relative to docetaxel: about 1/216
[9]; [16]
  pIC50: ~4.69 and 4.69
